Laboratory results as given in PMC8525843 (Investigative Ophthalmology & Visual Science, 2021).

Experiments:
patients = settings: clinical data; cited from earlier work
[1] = system: hypertonic saline-induced ocular hypertensive NZW rabbits; assay: IOP-lowering effect in hypertonic saline-induced ocular hypertensive NZW rabbits; assay type: in vivo, rabbit; settings: 0.02%; at 1.5 hours; vs saline
rabbit eyes = settings: after administration; cited from earlier work

## C[C@H]1CNCCCN1S(=O)(=O)c1cccc2cncc(F)c12 [ripasudil, Ripasudil]
patients
  time for conjunctival hyperemia to resolve spontaneously: ≤ 4 h

## Cc1ccc(C(=O)OCc2ccc([C@@H](CN)C(=O)Nc3ccc4cnccc4c3)cc2)c(C)c1 [AR-13324, netarsudil]
[1]
  Emax of IOP reduction: 12.1 ± 0.9 mm Hg

## O=S(=O)(c1cccc2c(Cl)cccc12)N1CCCNCC1 [ML-9]
Rabbit eyes
  IOP of rabbit eyes: decreased in a dose-dependent manner
